Measured values from paper PMC6661771, “Indole hybridized diazenyl derivatives: synthesis, antimicrobial activity, cytotoxicity evaluation and docking studies” (BMC Chemistry, 2019).
Values after ≈ are worked out from the molar mass of the structure shown. Read-outs that look alike come from different tables or passages of the source.

Experiments:
S. aureus [1] = test: MIC by tube dilution method; assay type: cell-based; details: 24 h at 37 °C
B. subtilis [2] = test: Minimum bactericidal concentration (MBC); assay type: cell-based; details: for MBC: Bacillus subtilis
E. coli [3] = test: MIC by tube dilution method; assay type: cell-based; details: 24 h at 37 °C
K. pneumonia [4] = test: Minimum bactericidal concentration (MBC); assay type: cell-based; details: for MBC: Klebsiella pneumoniae
S. aureus [5] = test: Minimum bactericidal concentration (MBC); assay type: cell-based; details: for MBC: Staphylococcus aureus
E. coli [6] = test: Minimum bactericidal concentration (MBC); assay type: cell-based; details: for MBC: Escherichia coli
K. pneumonia [7] = test: MIC by tube dilution method; assay type: cell-based; details: Klebsiella pneumoniae, 24 h, 24 h at 37 °C, read-out: MIC
S. enterica [8] = test: Minimum bactericidal concentration (MBC); assay type: cell-based; details: Salmonella enterica, read-out: MBC/MFC
Protocol: After MIC assessment, the indole derivatives (DS1–DS21), were additionally evaluated for MBC and MFC values. […] The 10–15 ml of nutrient agar and Sabouraud dextrose agar was added to the petri plates for bacterial and fungal samples respectively with gentle shaking of plates in order to mix the culture throughout the media. Allowed the media to solidify. The petri plates were then incubated for the predefined time and temperature as referenced already for bacterial and fungal cultures respectively. The plates were then investigated visually for the development of microbial growth. The MBC and MFC were stated as the minimum concentration of the compounds in aliquots showing no visual growth after incubation.

B. subtilis [9] = test: MIC by tube dilution method; assay type: cell-based; details: 24 h at 37 °C
S. enterica [10] = test: MIC by tube dilution method; assay type: cell-based; details: 24 h at 37 °C
A. niger [11] = test: MIC by tube dilution method; assay type: cell-based; details: 7 days at 25 °C
A. fumigatus [12] = test: MIC by tube dilution method; assay type: cell-based; details: 7 days at 25 °C
A. fumigatus [13] = test: Minimum fungicidal concentration (MFC); assay type: cell-based; details: for MFC: Aspergillus fumigatus, read-out: MBC/MFC
A. niger [14] = test: Minimum fungicidal concentration (MFC); assay type: cell-based; details: for MFC: Aspergillus niger, read-out: MBC/MFC
[15] = Staphylococcus aureus, read-out: MIC
[16] = Escherichia coli, 24 h, read-out: MIC
[17] = Bacillus subtilis, read-out: MIC
[18] = Salmonella enterica, 24 h, read-out: MIC
[19] = Aspergillus niger, 168 h, read-out: MIC
[20] = Aspergillus fumigatus, 168 h, read-out: MIC

Row | SMILES | MIC (S. aureus [1]; [15]) [µg/mL] | MBC (B. subtilis [2]) [µg/mL] | MIC (E. coli [3]; [16]) [µg/mL] | MBC (K. pneumonia [4]) [µg/mL] | MBC (S. aureus [5]) [µg/mL] | MBC (E. coli [6]) [µg/mL] | MIC (K. pneumonia [7]) [µg/mL] | MBC (S. enterica [8]; S. enterica, MBC) [µg/mL] | MIC (B. subtilis [9]; [17]) [µg/mL] | MIC (S. enterica [10]; [18]) [µg/mL] | melting point [°C] | MIC (A. niger [11]; [19]) [µg/mL] | MIC (A. fumigatus [12]; [20]) [µg/mL] | MFC (A. fumigatus [13]) [µg/mL] | MFC (A. niger [14]) [µg/mL] | also measured
1 | CO/N=C(\C(=O)N[C@@H]1C(=O)N2C(C(=O)O)=C(COC(C)=O)CS[C@H]12)c1csc(N)n1 [CFT, cefotaxime, reference compound] | 15.6 (≈ 34.3 µM) | 15.6 (≈ 34.3 µM) | 1.95 (≈ 4.28 µM) | 3.9 (≈ 8.56 µM) | 31.2 (≈ 68.6 µM) | 15.6 (≈ 34.3 µM) | 1.95 (≈ 4.28 µM) | 31.2 (≈ 68.6 µM) | 15.6 (≈ 34.3 µM) | 15.6 (≈ 34.3 µM) |  |  |  |  |  | 
2 | O=C(O)c1cn(C2CC2)c2cc(N3CCNCC3)c(F)cc2c1=O [CPR, ciprofloxacin, reference compound] | 1.95 (≈ 5.89 µM) | 31.2 (≈ 94.3 µM) | 3.9 (≈ 11.8 µM) | 7.81 (≈ 23.6 µM) | 62.5 (≈ 189 µM) | 31.2 (≈ 94.3 µM) | 7.81 (≈ 23.6 µM) | 31.2 (≈ 94.3 µM) | 7.81 (≈ 23.6 µM) | 15.6 (≈ 47.1 µM) |  |  |  |  |  | 
3 | C/C(=N\Cc1ccco1)c1ccc(/N=N/c2c[nH]c3ccccc23)cc1 [DS-1, (E)-N-(2-Furylmethyl)-1-[4-[(E)-1H-indol-3-ylazo]phenyl]ethanimine] | 62.5 (≈ 183 µM) | 125 (≈ 365 µM) | 15.6 (≈ 45.6 µM) |  | 125 (≈ 365 µM) | 125 (≈ 365 µM) | 3.9 (≈ 11.4 µM) | 62.5 (≈ 183 µM) | 62.5 (≈ 183 µM) | 62.5 (≈ 183 µM) | 315 to 320 | 125 (≈ 365 µM) | 62.5 (≈ 183 µM) | 125 (≈ 365 µM) | 125 (≈ 365 µM) | 
4 | C/C(=N/c1nnc(-c2ccc([N+](=O)[O-])cc2)s1)c1ccc(/N=N\c2c[nH]c3ccc([N+](=O)[O-])cc23)cc1 [DS-5, (Z)-N-(1-(4-((Z)-(5-Nitro-1H-indol-3-yl)diazenyl)phenyl)ethylidene)-5-(4-nitrophenyl)-1,3,4-thiadiazol-2-amine] | 125 (≈ 244 µM) | 125 (≈ 244 µM) | 1.95 (≈ 3.8 µM) | 15.6 (≈ 30.5 µM) | 125 (≈ 244 µM) | 31.2 (≈ 61 µM) | 3.9 (≈ 7.61 µM) | 62.5 (≈ 122 µM) | 62.5 (≈ 122 µM) | 31.2 (≈ 61 µM) | 160 to 165 | 62.5 (≈ 122 µM) | 125 (≈ 244 µM) | 125 (≈ 244 µM) | 125 (≈ 244 µM) | 
5 | CCc1nnc(/N=C(/C)c2ccc(/N=N\c3c[nH]c4ccccc34)cc2)s1 [DS-7, (Z)-N-(1-(4-((Z)-(1H-Indol-3-yl)diazenyl)phenyl)ethylidene)-5-ethyl-1,3,4-thiadiazol-2-amine] | 62.5 (≈ 167 µM) | 125 (≈ 334 µM) | 7.81 (≈ 20.9 µM) | 16.2 (≈ 43.4 µM) | 125 (≈ 334 µM) | 31.2 (≈ 83.5 µM) | 3.9 (≈ 10.4 µM) |  | 125 (≈ 334 µM) | 31.2 (≈ 83.5 µM) | 145 to 150 | 62.5 (≈ 167 µM) | 62.5 (≈ 167 µM) | 125 (≈ 334 µM) | 125 (≈ 334 µM) | MBC (S. enterica [8]): 31.2 µg/mL (≈ 83.5 µM)
6 | C/C(=N/c1ccc(S(=O)(=O)Nc2ccccn2)cc1)c1ccc(/N=N\c2c[nH]c3ccccc23)cc1 [DS-11, 4-((Z)-(1-(4-((Z)-(1H-Indol-3-yl)diazenyl)phenyl)ethylidene)amino)-N-(pyridin-2-yl)benzenesulfonamide] | 31.2 (≈ 63.2 µM) | 125 (≈ 253 µM) | 3.9 (≈ 7.89 µM) | 31.2 (≈ 63.2 µM) | 62.5 (≈ 126 µM) | 62.5 (≈ 126 µM) | 15.6 (≈ 31.6 µM) | 125 (≈ 253 µM) | 31.2 (≈ 63.2 µM) | 62.5 (≈ 126 µM) | 135 to 140 | 125 (≈ 253 µM) | 62.5 (≈ 126 µM) | 125 (≈ 253 µM) | 125 (≈ 253 µM) | 
7 | C/C(=N/c1ccc(Cl)cc1[N+](=O)[O-])c1ccc(/N=N\c2c[nH]c3ccccc23)cc1 [DS-13, (Z)-N-(1-(4-((Z)-(1H-Indol-3-yl)diazenyl)phenyl)ethylidene)-4-chloro-2-nitroaniline] | 62.5 (≈ 150 µM) | 125 (≈ 299 µM) | 7.81 (≈ 18.7 µM) | 15.6 (≈ 37.4 µM) | 62.5 (≈ 150 µM) | 3.9 to 7.81 (≈ 9.33 to 18.7 µM) | 3.9 (≈ 9.33 µM) |  | 62.5 (≈ 150 µM) | 62.5 (≈ 150 µM) |  | 62.5 (≈ 150 µM) | 31.2 (≈ 74.8 µM) | 125 (≈ 299 µM) | 125 (≈ 299 µM) | MBC (S. enterica [8]): 62.5 µg/mL (≈ 150 µM)
8 | CC(=O)NS(=O)(=O)c1ccc(/N=C(/C)c2ccc(/N=N\c3c[nH]c4ccc([N+](=O)[O-])cc34)cc2)cc1 [DS-15, N-((4-((Z)-(1-(4-((Z)-(5-Nitro-1H-indol-3-yl)diazenyl)phenyl)ethylidene)amino)phenyl)sulfonyl)acetamide] | 125 (≈ 248 µM) | 62.5 (≈ 124 µM) | 15.6 (≈ 31 µM) | 31.2 (≈ 61.9 µM) | 31.2 (≈ 61.9 µM) | 125 (≈ 248 µM) | 3.9 (≈ 7.73 µM) | 31.2 (≈ 61.9 µM) | 31.2 (≈ 61.9 µM) | 31.2 (≈ 61.9 µM) | 110 to 115 | 125 (≈ 248 µM) | 62.5 (≈ 124 µM) | 125 (≈ 248 µM) | 125 (≈ 248 µM) | 
9 | C/C(=N/c1ccc(S(=O)(=O)Nc2ncccn2)cc1)c1ccc(/N=N\c2c[nH]c3ccccc23)cc1 [DS-19, 4-((Z)-(1-(4-((Z)-(1H-Indol-3-yl)diazenyl)phenyl)ethylidene)amino)-N-(pyrimidin-2-yl) benzenesulfonamide] |  |  |  |  |  |  |  |  |  |  |  |  |  |  |  | MIC (S. aureus [1]): 31.25 µg/mL (≈ 63.1 µM); MBC/MFC (B. subtilis [2]): 125 µg/mL (≈ 252 µM); MIC (E. coli [3]): 7.81 µg/mL (≈ 15.8 µM); MBC/MFC (K. pneumonia [4]): 15.62 µg/mL (≈ 31.5 µM); MBC/MFC (S. aureus [5]): 31.25 µg/mL (≈ 63.1 µM); MBC/MFC (E. coli [6]): 62.5 µg/mL (≈ 126 µM); MIC (A. niger [11]): 31.25 µg/mL (≈ 63.1 µM); MIC (A. fumigatus [12]): 31.25 µg/mL (≈ 63.1 µM); MBC/MFC (A. fumigatus [13]): 125 µg/mL (≈ 252 µM); MIC (B. subtilis [9]): 31.25 µg/mL (≈ 63.1 µM); MBC/MFC (A. niger [14]): 125 µg/mL (≈ 252 µM); MIC (S. enterica [10]): 62.5 µg/mL (≈ 126 µM)
10 | OC(Cn1cncn1)(Cn1cncn1)c1ccc(F)cc1F [FLU, fluconazole, reference compound] |  |  |  |  |  |  |  |  |  |  |  | 31.2 (≈ 102 µM) | 7.81 (≈ 25.5 µM) | 125 (≈ 408 µM) | 125 (≈ 408 µM) | 
